Laboratory results published in paper PMC10608985, “Retention Behavior of Anticancer Thiosemicarbazides in Biomimetic Chromatographic Systems and In Silico Calculations” (Molecules, 2023).

Tests used:
[1] = HPLC lipophilicity on IAM (immobilized artificial membrane, phosphatidylcholine) stationary phase; format: physicochemical; conditions: pH 7.4; for Log k IAM: Table S2; for log kw IAM: intercept, linear extrapolation to water; for log kw IAM / -S IAM: ACN/20 mM phosphate buffer; for -S IAM: slope of Soczewiński–Wachtmeister equation
Experimental: (§1) For the evaluation of the compounds the following stationary phases were used: C-18; biomimetic, IAM; cholesterol (Chol); immobilized proteins HSA and AGP. For the lipophilicity determination, MeOH (C-18, Chol) or ACN (IAM) were applied as the organic modifiers. The measurements were performed at pH 7.4 of the mobile phase. The regular changes in the retention of all solutes used as organic modifier content in the mobile phase on three studied stationary phases were found. It is expressed by the Soczewiński–Wachtmeister Equation (1):log k = log kw + S (% organic modifier)(1) where log kw—the intercept; S—the slope of regression curve. […] Log kw as well as S parameters are commonly applied as lipophilicity descriptors.
(§2) HPLC measurements were performed using a liquid chromatograph Knauer (Knauer, Berlin, Germany) with a dual pump, a 20 µL simple injection valve, and a UV–visible detector. The compounds were detected under UV light at 280 nm at room temperature. The retention time of an unretained solute (t0) was determined by the injection of a small amount of citric acid dissolved in water.
A Rexchrom IAM.PC.DD2 (12 μm, 100 × 4.6 mm, 300 Å) (Regis Technologies, Morton Grove, IL, USA) column was used as the stationary phase. The compounds were dissolved at a concentration of 0.5 mg × mL^−1 in MeOH. The mobile phases consisted of different volume fractions of ACN and 20 mM phosphate buffer; the aqueous phase maintained a pH = 7.4 (0.02 M KH2PO4, Na2HPO4 and 0.15 M KCl). The acetonitrile concentration ranged from 0.05 to 0.4 (v/v), depending on the structure of compound, at 0.05 intervals (Table S2 in the Supplementary Materials). The flow rate was 1 mL × min^−1.

[2] = HPLC lipophilicity on cholesterol (Chol) stationary phase; format: physicochemical; conditions: pH 7.4; for Log k Chol: Table S3; for log kw Chol: intercept, linear extrapolation to water; for log kw Chol / -S Chol: MeOH/20 mM acetate buffer; for -S Chol: slope of Soczewiński–Wachtmeister equation
Experimental: as §1, §2
Cogent 4 UDC Cholesterol (150 × 2.1 mm, 4 µm) MicroSolv Technology Corporation (Leland, NC, USA) column was used. The mobile phase consisted of different volume mixtures of MeOH as the organic modifier and 20 mM acetate buffer as the aqueous phase, to obtain pH = 7.4. The concentrations of the organic modifier were in the range from 0.3 to 0.8 (v/v) with step 0.05 or 0.1 (Table S3 in the Supplementary Materials). The flow rate was 0.35 mL × min^−1.

[3] = target: T1, human serum albumin (HSA) (Homo sapiens, UniProt P02768); assay: HPLC on immobilized HSA column, affinity and % plasma–protein binding; format: in vitro ADME; conditions: for log K HSA: binding equilibrium constant from calibration curve (Equation 8) of log k HSA; for fraction unbound: human, pH 7.4, % plasma–protein binding converted from log K HSA (Equation 10), read-out: %PPB HSA (converted); for log k HSA: retention on HSA column, 50 mM ammonium acetate pH 7.4 / propan-2-ol 85/15 (v/v)
T1 construct: purchased Chiralpac
T1 sequence (P02768 25-609): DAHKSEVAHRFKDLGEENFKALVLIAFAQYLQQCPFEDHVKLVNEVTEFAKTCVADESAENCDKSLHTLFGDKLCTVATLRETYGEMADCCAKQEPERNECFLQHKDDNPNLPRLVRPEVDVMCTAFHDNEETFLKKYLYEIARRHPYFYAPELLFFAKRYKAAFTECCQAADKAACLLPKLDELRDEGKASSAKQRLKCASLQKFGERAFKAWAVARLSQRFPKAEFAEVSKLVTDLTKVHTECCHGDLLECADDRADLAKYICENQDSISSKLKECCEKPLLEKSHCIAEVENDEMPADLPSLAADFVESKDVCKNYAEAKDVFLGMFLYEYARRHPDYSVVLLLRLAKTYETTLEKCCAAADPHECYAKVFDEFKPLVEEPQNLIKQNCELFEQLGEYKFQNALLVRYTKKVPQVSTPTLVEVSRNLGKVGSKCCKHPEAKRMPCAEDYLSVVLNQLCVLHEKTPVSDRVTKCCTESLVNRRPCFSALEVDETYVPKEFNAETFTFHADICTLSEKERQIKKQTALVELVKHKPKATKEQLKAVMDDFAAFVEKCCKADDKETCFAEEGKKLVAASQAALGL
Experimental: (§3) Measurements on HSA and AGP immobilized protein columns were carried out with […] isopropanol content in the aqueous mobile phase.
(§4) The standard calibration curve was used to predict log K values (K—binding equilibrium constant) of investigated compounds to HSA and AGP. Next, the log K values were converted into a percentage of plasma–protein binding (%PPB) of the compounds (Table 2). […] It is the lowest for compound 16 with -NO2 substituent, unsubstituted compound 1, and fluorine derivatives 2 and 9. In a group of […] derivatives in the same position of the phenyl ring, the %PPB to AGP increases with the increase in the atomic weight of the halogen atom and the lipophilicity of the molecule.
as §2
(§5) A human serum albumin (HSA) immobilized on the 5 µm silica gel column 100 × 3 mm (Chiralpac) and an α1-acid glycoprotein (AGP) immobilized on the 5 µm silica gel column 100 × 4 mm (Chiralpac) were used. The compounds were dissolved at 0.5 mg/mL concentration in 50% propan-2-ol and ammonium acetate solution (pH = 7.4) mixtures for HSA measurements. The mobile phase was composed of 50 mM ammonium acetate solution (pH = 7.4) and propan-2-ol at 85/15 (v/v) for AGP, respectively. The flow of mobile phases was 0.5 mL×min^−1. Log k values for the selected mobile phase were determined for all studied compounds and standard substances. The % protein plasma binding (% PPB) values were calculated from the calibration curve according to Valko et al..
(§6) Calibration of the protein columns: The column performance check and the calibration check were performed before measurements. The racemic mixture of warfarin was used for their performance evaluation. The following calibration set of drugs was applied: bromazepam, carbamazepine, diclofenac, nicardipine, nizatidine, piroxicam for HSA and bromazepam, chlorpromazine, imipramine, nicardipine, nizatidine, propranolol, and warfarin for AGP. The analytical standards were purchased from Sigma Aldrich Steinhen, Steinheim am Albuch, Germany). The drugs were dissolved at 0.5 mg/mL concentration in 50% propan-2-ol and ammonium acetate solution mixtures (pH = 7.4). The obtained log k values from HPLC were plotted against the log K values (K—binding equilibrium constant, log K—linearized PPB) based on the literature data for plasma–protein binding (%, PPB). The following relationships were obtained: log KHSA = 0.2513 (±0.0984) + 1.0525 (±0.1171) log k HSA(8) n=6, R=0.9761, R^2 = 0.9528, Radj2 = 0.9410, s = 0.1948 log KAGP = 0.1733 (±0.0574) + 0.8902 (±0.0787) log k AGP(9) n=7, R=0.9810, R^2 = 0.9623, Radj2 = 0.9548, s = 0.1113
(§7) Log K values were converted into %PPB using the following equation [15]:(10) %PPB=101×10^logK/1+10^logK

[4] = system: α1-acid glycoprotein (AGP); assay: HPLC on immobilized AGP column, affinity and % plasma–protein binding; format: in vitro ADME, human; conditions: for log K AGP: binding equilibrium constant from calibration curve (Equation 9) of log k AGP; for fraction unbound: human, pH 7.4, % plasma–protein binding converted from log K AGP (Equation 10), read-out: %PPB AGP (converted); for log k AGP: retention on AGP column, 50 mM ammonium acetate pH 7.4 / propan-2-ol 85/15 (v/v)
Experimental: as §3, §4, §2, §5, §6, §7

[5] = parameters: method as in Kozyra et al. [31]; conditions: MeOH/20 mM acetate buffer, pH 7.4, ref Kozyra et al. [31], cited from earlier work; for log kw C-18: intercept of Soczewiński–Wachtmeister equation (water as mobile phase); for -S C-18: slope of Soczewiński–Wachtmeister equation

| Log k IAM ([1]; ACN 0.15 v/v in mobile phase) | Log k IAM ([1]; ACN 0.20 v/v in mobile phase) | Log k IAM ([1]; ACN 0.25 v/v in mobile phase) | Log k IAM ([1]; ACN 0.30 v/v in mobile phase) | Log k IAM ([1]; ACN 0.35 v/v in mobile phase) | -S IAM [1] | Log k Chol ([2]; MeOH 0.40 v/v in mobile phase) | Log k Chol ([2]; MeOH 0.45 v/v in mobile phase) | Log k Chol ([2]; MeOH 0.50 v/v in mobile phase) | Log k Chol ([2]; MeOH 0.60 v/v in mobile phase) | Log k Chol ([2]; MeOH 0.80 v/v in mobile phase) | log kw Chol [2] | -S Chol [2] | log K HSA [3] | log k HSA [3] | log K AGP [4] | fraction unbound [4] | log k AGP [4] | Compound | log kw C-18 [5] | -S C-18 [5] | other results |
| --- | --- | --- | --- | --- | --- | --- | --- | --- | --- | --- | --- | --- | --- | --- | --- | --- | --- | --- | --- | --- | --- |
| 0.821 | 0.513 | 0.282 | -0.101 | -0.280 | 5.7908 | 1.108 | 0.878 | 0.510 | 0.379 | -0.975 | 3.1664 | 5.0386 | 1.6830 | 1.3603 | 0.6672 | 0.169 | 0.5548 | CSc1ccc(NC(=S)NNC(=O)COc2ccccc2)cc1 [Compound 17] | 2.6753 | 4.6859 | Log k IAM ([1]; ACN 0.10 v/v in mobile phase): 1.147; log kw IAM [1]: 1.6998; Log k Chol ([2]; MeOH 0.35 v/v in mobile phase): 1.434; Log k Chol ([2]; MeOH 0.70 v/v in mobile phase): -0.316; fraction unbound [3]: 0.011 |
| 1.352 | 0.951 | 0.655 | 0.141 | -0.016 | 6.8364 | 1.303 | 1.049 | 0.685 | 0.404 | -0.783 | 3.3300 | 5.0829 | 2.1778 | 1.8304 | 0.8378 | 0.118 | 0.7465 | O=C(COc1ccccc1)NNC(=S)Nc1ccc(I)cc1 [Compound 12] | 2.9681 | 4.8352 | Log k IAM ([1]; ACN 0.40 v/v in mobile phase): -0.358; log kw IAM [1]: 2.3341; Log k Chol ([2]; MeOH 0.70 v/v in mobile phase): -0.214 |
| 0.794 | 0.515 | 0.291 | -0.138 | -0.209 | 5.2422 | 0.759 | 0.461 | 0.198 | -0.068 | -1.020 | 2.3437 | 4.1573 | 1.2059 | 0.9070 | 0.5523 | 0.211 | 0.4257 | O=C(COc1ccccc1)NNC(=S)Nc1ccccc1Cl [Compound 3] | 2.3929 | 4.5312 | Log k IAM ([1]; ACN 0.10 v/v in mobile phase): 1.022; log kw IAM [1]: 1.5588; Log k Chol ([2]; MeOH 0.30 v/v in mobile phase): 1.024; Log k Chol ([2]; MeOH 0.35 v/v in mobile phase): 0.917; fraction unbound [3]: 0.049 |

Continued, compound first:

| Compound | Log k IAM ([1]; ACN 0.15 v/v in mobile phase) | Log k IAM ([1]; ACN 0.20 v/v in mobile phase) | Log k IAM ([1]; ACN 0.25 v/v in mobile phase) | Log k IAM ([1]; ACN 0.30 v/v in mobile phase) | Log k IAM ([1]; ACN 0.35 v/v in mobile phase) | -S IAM [1] | Log k Chol ([2]; MeOH 0.40 v/v in mobile phase) | Log k Chol ([2]; MeOH 0.45 v/v in mobile phase) | Log k Chol ([2]; MeOH 0.50 v/v in mobile phase) | Log k Chol ([2]; MeOH 0.60 v/v in mobile phase) | Log k Chol ([2]; MeOH 0.80 v/v in mobile phase) | log kw Chol [2] | -S Chol [2] | log K HSA [3] | log k HSA [3] | log K AGP [4] | fraction unbound [4] | log k AGP [4] | log kw C-18 [5] | -S C-18 [5] | other results |
| --- | --- | --- | --- | --- | --- | --- | --- | --- | --- | --- | --- | --- | --- | --- | --- | --- | --- | --- | --- | --- | --- |
| O=C(COc1ccccc1)NNC(=S)Nc1ccc(Cl)cc1Cl [Compound 13] | 1.240 | 0.870 | 0.557 | 0.067 | -0.103 | 6.2034 | 1.246 | 0.978 | 0.627 | 0.400 | -1.016 | 3.4517 | 5.4505 | 1.6879 | 1.3649 | 0.5886 | 0.197 | 0.4665 | 3.2152 | 5.1803 | Log k IAM ([1]; ACN 0.40 v/v in mobile phase): -0.430; Log k Chol ([2]; MeOH 0.70 v/v in mobile phase): -0.329; fraction unbound [3]: 0.01 |
| O=C(COc1ccccc1)NNC(=S)Nc1ccccc1 [Compound 1] | 0.284 | 0.085 | -0.142 | -0.518 | -0.490 | 4.4559 | 0.620 | 0.440 | 0.110 | -0.157 | -1.006 | 2.2209 | 4.0307 | 1.0986 | 0.8050 | 0.4018 | 0.277 | 0.2567 | 1.7866 | 3.7611 | Log k IAM ([1]; ACN 0.05 v/v in mobile phase): 0.999; Log k IAM ([1]; ACN 0.10 v/v in mobile phase): 0.548; Log k IAM ([1]; ACN 0.40 v/v in mobile phase): -0.556; log kw IAM [1]: 1.0288; Log k Chol ([2]; MeOH 0.30 v/v in mobile phase): 0.979; Log k Chol ([2]; MeOH 0.35 v/v in mobile phase): 0.857; fraction unbound [3]: 0.065 |
| O=C(COc1ccccc1)NNC(=S)Nc1ccc(Br)cc1 [Compound 11] | 1.141 | 0.792 | 0.453 | 0.004 | -0.111 | 6.5856 | 1.158 | 0.871 | 0.571 | 0.276 | -0.886 | 3.1674 | 5.0251 | 2.0248 | 1.685 | 0.6344 | 0.18 | 0.518 | 2.734 | 4.6183 | log kw IAM [1]: 2.1020; Log k Chol ([2]; MeOH 0.35 v/v in mobile phase): 1.437 |
